These results are taken from US9155770B2.

Experiment [1] has as its target T1, ERβ (Homo sapiens, UniProt Q92731). In words: ERE-tk-Luc luciferase assay in U2OS cells with ERβ. Format: cell-based. More on the design: expressed in transfected cells; host or cells: U2OS (human osteosarcoma). The conditions noted are these: competition with the extract.
The next experiment relates to TNF-RE tkLuc. In words: Effect of antiestrogens on TNF-RE tkLuc (Example 2). As to conditions: in contrast to E2. It is filed as cell-based, human.
For experiment [2], the system named is primary invasive breast cancer. The conditions noted are these: women at high risk for breast cancer; cited from earlier work.
Experiment [3] relates to estrogen receptor-positive breast cancer. The conditions noted are these: five years of therapy; cited from earlier work.
Experiment [4] concerns the target T1, ERβ. The conditions noted are these: Example 2.
In experiment [5] the target is T1, ERβ. Briefly: TNF-RE tkLuc repression in U2OS cells with ERβ. Format: cell-based. More on the design: expressed in transfected cells.

T1 sequence (Q92731 whole entry): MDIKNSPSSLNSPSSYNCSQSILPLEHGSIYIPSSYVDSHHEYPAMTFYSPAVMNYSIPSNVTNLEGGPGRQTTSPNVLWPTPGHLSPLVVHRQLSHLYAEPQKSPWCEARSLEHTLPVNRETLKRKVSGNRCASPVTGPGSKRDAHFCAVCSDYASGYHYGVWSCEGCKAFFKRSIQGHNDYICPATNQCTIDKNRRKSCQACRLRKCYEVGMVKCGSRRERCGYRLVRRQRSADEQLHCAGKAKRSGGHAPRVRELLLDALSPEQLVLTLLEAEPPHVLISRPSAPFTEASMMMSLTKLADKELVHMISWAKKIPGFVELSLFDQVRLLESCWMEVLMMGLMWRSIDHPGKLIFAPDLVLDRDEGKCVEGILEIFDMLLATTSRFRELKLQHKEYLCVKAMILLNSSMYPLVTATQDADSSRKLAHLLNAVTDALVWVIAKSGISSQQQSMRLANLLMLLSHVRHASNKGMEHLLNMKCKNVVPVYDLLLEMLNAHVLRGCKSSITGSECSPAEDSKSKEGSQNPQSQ

`O=C(c1ccc(OCCN2CCCCC2)cc1)c1c(-c2ccc(O)cc2)sc2cc(O)ccc12` [raloxifene]: the “effect of SERM antagonist on extract-stimulated ERE with ERβ (FIG. 6)” value on ERβ [1] is “inhibited”. The “activation of TNF-RE tkLuc” value in the experiment with TNF-RE tkLuc is listed as 2 fold.

Turning to `C[C@]12CC[C@@H]3c4ccc(O)cc4C[C@@H](CCCCCCCCC[S+]([O-])CCCC(F)(F)C(F)(F)F)[C@H]3[C@@H]1CC[C@@H]2O` (stereo partly drawn) [ICI 182, 780], the “activation of TNF-RE tkLuc” value in the experiment with TNF-RE tkLuc is reported as 2 fold.

For the compound `CC/C(=C(\c1ccccc1)c1ccc(OCCN(C)C)cc1)c1ccccc1` [tamoxifen], in experiment [2], the “reduction of risk of primary invasive breast cancer” value is 49%. In addition, in experiment [3], the “reduction of mortality from breast cancer” value is listed as 22% and the “reduction of risk of recurrences” value was 42%. Further, the “activation of TNF-RE tkLuc” value in the experiment with TNF-RE tkLuc turned out to be 2 fold.

As to `C[C@]12CC[C@@H]3c4ccc(O)cc4CC[C@H]3[C@@H]1CC[C@@H]2O` [E2, estradiol], the “repression of TNF-α activation of TNF-RE tkLuc with ERβ” value at ERβ [4] is 60-80%. In addition, the “repression of TNF-α activation of TNF-RE with ERβ” value at ERβ [5] is reported as 100%.
